According to US10426778B2, “Prophylactic agent and/or therapeutic agent for diffuse large B-cell lymphoma” (ONO PHARMACEUTICAL CO., LTD., priority 2014, dated 2019):

System: ABC-DLBCL patients
Experiment: Open label multicenter non-randomized clinical trial of the present compound as monotherapy in recurrent or refractory ABC-DLBCL patients
Type: in vivo, human
Protocol: A clinical trial was conducted by an open label multicenter non-randomized test by administering 6-amino-9-[(3R)-1-(2-butynoyl)-3-pyrrolidinyl]-7-(4-phenoxyphenyl)-7,9-dihydro-8H-purin-8-one hydrochloride, the present compound, as monotherapy to an ABC-DLBCL patient.
Among the patients who had already received treatment, who had been diagnosed as a non-Hodgkin's lymphoma, for whom higher preference order of treatment was not present, and who fell under the following definition of “recurrent” or “refractory”, patients satisfying the following conditions entered.
Recurrent: Patients who attained Complete Response (CR), Complete Response, unconfirmed (CRu), CR with incomplete marrow recovery (CRi) or Partial Response (PR) for 6 months or longer after the last treatment of non-Hodgkin's lymphoma, and for whom pathological advance was recognized.
Refractory: Patients who could not attain CR, CRu, CRi or PR after the last treatment of non-Hodgkin's lymphoma, or patients who acquired CR, CRu, CRi or PR for shorter than 6 months after the last treatment, but for whom pathological advance was recognized.
Condition: Two or more NHL treatments have already failed.
A fixed dose of the present compound was orally administered once per day, with one cycle being treatment for 28 days in 3 patients per one cohort. The schedule was such that this cycle was conducted until 6 cycles, and could be maximally extended to 24 cycles. In the first cohort, all the patients were administered at a fixed dose of 20 mg of the present compound.
Regarding the NHL patients who entered under the above conditions, an immunohistochemical method or gene expression profiling was conducted according to a conventional method using a diagnostic sample obtained by tissue biopsy excising a part of affected lymph node, so that patients affected with ABC-DLBCL were extracted.
Primary evaluation items were safety, tolerance and dose limiting toxicities (DLTs). These items were evaluated using manifestation of adverse event, physical examination, clinical test, vital sign and cardiograph. In addition, the intensity of the adverse event was determined using Common Terminology Criteria for Adverse Events (CTCAE) version 4.0 of the National Cancer Institute.
Secondary evaluation items were Overall Response Rate (ORR), Complete Response Rate (CR, CRu, CRi), Partial Response Rate (PR), Progression Free Survival (PFS), Overall Survival (OS), Duration of Response, Event Free Survival (EFS), Pharmacokinetics (PK) and Pharmacodynamics (PD). In addition, the evaluations of CR, CRu and PR were conducted by referring to evaluation criteria described in Journal of Clinical Oncology, Vol. 17, No. 4, pages 1244-1253, 1999.
Biopsy samples of tumor were obtained from ABC-DLBCL patients before administration of the present compound. From the samples, genomic DNA was extracted by conventional method, and the presence or absence of CD79B mutation was confirmed in accordance with the method described in Nature, No. 463, pages 88-92, 2010. As a result, it was seen that, among the 8 ABC-DLBCL patients, all of 7 evaluable patients had CD79B wild-type gene background.

[1] = in 8 cases, cohort 4 (160 mg) or cohort 5 (520 mg)

CC#CC(=O)N1CC[C@@H](n2c(=O)n(-c3ccc(Oc4ccccc4)cc3)c3c(N)ncnc32)C1.Cl [present compound, 6-amino-9-[(3R)-1-(2-butynoyl)-3-pyrrolidinyl]-7-(4-phenoxyphenyl)-7,9-dihydro-8H-purin-8-one hydrochloride]
Overall Response Rate (ORR) in ABC-DLBCL patients having CD79B wild-type (6 cases in 7 cases): 85% | bleeding-associated event such as intracranial bleeding as adverse event (13 ABC-DLBCL patients): not seen at all | tolerance (13 ABC-DLBCL patients administered the present compound): high tolerance | Overall Response Rate (ORR) (ABC-DLBCL patients, 8 cases, cohort 4 (160 mg) or cohort 5 (520 mg), oral once per day): 75% | adverse events classified into grade 3 (drug reaction and lymphopenia) (among the 5 cases with adverse event of 13 cases, CTCAE version 4.0): 2 cases | PR cases [1]: 6 cases | disease progression cases [1]: 2 cases | median value of decrease in lymph node (in the 6 PR cases, cohort 4 (160 mg) or cohort 5 (520 mg)): 81.5% | decrease in lymph node swelling recognized (of 8 ABC-DLBCL patients, first administration cycle, oral once per day): 6 patients | adverse event associated with the present compound (of 13 cases): 5 cases
